In patent publication US20030007941A1, “Method of treating hair loss using thyromimetic compounds” (priority 2001, published 2003):

How the values were obtained:
C3H/HeN mice = assay: Telogen Conversion Assay (topical hair growth); assay type: in vivo; details: for Hair Growth at LDO (% Animals): animals with hair growth score of 1 or greater; for Hair Growth in 50% of Animals: day when 50% or greater had score of 1 or greater
Excerpt: The Telogen Conversion Assay measures the potential of a compound (hereinafter referred to as the “test compound”) to convert mice in the resting stage of the hair growth cycle (“telogen”) to the growth stage of the hair growth cycle (“anagen”). Without intending to be limited by theory, there are three principal phases of the hair growth cycle: anagen, catagen and telogen. The telogen period in C3H/HeN mice lasts from approximately 40 days of age until about 75 days of age, when hair growth is synchronized. It is believed that after 75 days of age, hair growth is no longer synchronized. For example, about 40 day-old mice with dark fur (brown or black) may be used in hair growth experiments; melanogenesis occurs in these animals along with hair (fur) growth and the topical application of hair growth inducers may be evaluated in these animals.
The Telogen Conversion Assay described below is used to screen test compounds for potential hair growth by measuring melanogenesis:
Objectives: To evaluate and compare the effect of test compounds applied topically on C3H/HeN mice for hair growth.
Animals: Female C3H/HeN mice, six and a half weeks of age.
Route and Duration of Treatment: Topical dosing with test compounds on mice is scheduled once or twice daily for five (5) consecutive days for one week to four weeks. Topical dosing begins on Day 0 by applying test compound or vehicle in volumes of 20 μl which keeps the solubilized test compound to a prescribed area of approximately one (1) square centimeter (1 cm^2) in the center of the clipped lower back of each mouse.
Study Design: Only mice with pink skin or in the telogen phase of the hair growth cycle are selected for inclusion in the study. On Friday, before the experiment starts, the mice are weighed and then anesthetized with isoflurane in a mouse chamber. The hair over the lower dorsal area is clipped with a Wahl clipper using a #40 blade. Care is taken to avoid abrading the skin surface. On the Monday (Day 0) following hair clipping, the mice are again anesthetized with isoflurane and photographed with a digital camera. After digital photographs are taken, the mice receive 20 μl of the respective test compounds applied with an automated pipette to the clipped area between the hind legs. The test compound for each treatment group is evenly spread with the pipette tip to an area approximately 1 square centimeter (1 cm^2), and applied to the same site on subsequent dosing days. All topical treatments are administered as described in the Route and Duration of Treatment Section.
Observations of the test sites are made three (3) times a week on Monday, Wednesday, and Friday, with observations beginning immediately after the first week of treatment and looking for changes in skin pigment, hair growth, and signs of irritation such as scaling, peeling, scabbing and erythema. Digital photographs are taken on Days 0, 10, 15, 31 and 35 (end of the study) for the dosing groups. Body weights of mice are taken on the first and last days of observation for each test group.
The scoring system for hair growth is described below:
0=No hair growth/pigment change (pink skin);
1=Gray/dark skin color (no visible hair growth);
2=Sparse/diffuse terminal hair growth;
3=dense, normal hair growth.
ph 2=peripheral hair growth with a score of 2
ph 3=peripheral hair growth with a score of 3
ldsh=long, diffuse/scattered hair growth in the dosing site
Scaling, peeling, scabbing, or erythema are scored as present (+) and absent (−). Any other local (e.g. test compound precipitation) or systemic abnormalities and aberrant hair growth are described on raw data scoring sheet.
Table 1 is a summary table of the results of the evaluation of five different test compounds in the Telogen Conversion Assay described above. Animals were observed and scored for hair growth using the scoring system for hair growth described above.

mice and rats = details: topical; cited from earlier work
AGA mouse = details: topical, model for androgen dependent hair loss; cited from earlier work
[1] = Experiment 3, 0.1% topical, 2 wks, LDO day 35
[2] = Experiment 1, 0.001% topical, 1 wk, LDO day 30
[3] = Experiment 1, 0.01% topical, 1 wk, LDO day 30
[4] = Experiment 1, 0.1% topical, 1 wk, LDO day 30
[5] = Experiment 1, 0.3% topical, 1 wk, LDO day 30
[6] = Experiment 2, 0.001% topical, 1 wk, LDO day 35
[7] = Experiment 2, 0.01% topical, 1 wk, LDO day 35
[8] = Experiment 2, 0.1% topical, 1 wk, LDO day 35
[9] = Experiment 2, 0.3% topical, 1 wk, LDO day 35
[10] = Experiment 3, 0.1% topical, 1 wk, LDO day 35

Cc1cc(-n2ncc(=O)[nH]c2=O)cc(C)c1Oc1ccc(O)c(Cc2ccc(F)cc2)c1 [Cpd #4, 2-{4-[3-(4-Fluoro-benzyl)-4-hydroxy-phenoxy]-3,5-dimethyl-phenyl}-2H-[1,2,4]triazine-3,5-dione]
Hair Growth at LDO (% Animals) (C3H/HeN mice; [1]): 100% | Hair Growth in 50% of Animals (C3H/HeN mice; [1]): 9 days

N[C@@H](Cc1cc(I)c(Oc2ccc(O)c(I)c2)c(I)c1)C(=O)O [T3, 3,5,3′-triiodo-L-thyronine]
effect on epidermal proliferation, dermal thickening and hair growth (mice and rats): stimulates epidermal proloferation, dermal thickening and hair growth | effect on testosterone induced alopecia (AGA mouse): inhibitory effect

O=C(NC1CCCCC1)c1cc(Oc2c(Cl)cc(-n3ncc(=O)[nH]c3=O)cc2Cl)ccc1O [Cpd #1, N-Cyclohexyl-5-[2,6-dichloro-4-(3,5-dioxo-4,5-dihydro-3H-[1,2,4]triazin-2-yl)-phenoxy]-2-hydroxy-benzamide]
Hair Growth at LDO (% Animals) (C3H/HeN mice; [2]): 22% | Hair Growth in 50% of Animals (C3H/HeN mice; [2]): >30 days | Hair Growth at LDO (% Animals) (C3H/HeN mice; [3]): 75% | Hair Growth in 50% of Animals (C3H/HeN mice; [3]): 14 days | Hair Growth at LDO (% Animals) (C3H/HeN mice; [4]): 100% | Hair Growth in 50% of Animals (C3H/HeN mice; [4]): 7 days | Hair Growth at LDO (% Animals) (C3H/HeN mice; [5]): 100% | Hair Growth in 50% of Animals (C3H/HeN mice; [5]): 9 days | Hair Growth at LDO (% Animals) (C3H/HeN mice; [6]): 50% | Hair Growth in 50% of Animals (C3H/HeN mice; [6]): 18 days | Hair Growth at LDO (% Animals) (C3H/HeN mice; [7]): 100% | Hair Growth in 50% of Animals (C3H/HeN mice; [7]): 14 days | Hair Growth at LDO (% Animals) (C3H/HeN mice; [8]): 100% | Hair Growth in 50% of Animals (C3H/HeN mice; [8]): 7 days | Hair Growth at LDO (% Animals) (C3H/HeN mice; [9]): 100% | Hair Growth in 50% of Animals (C3H/HeN mice; [9]): 9 days | Hair Growth at LDO (% Animals) (C3H/HeN mice; [10]): 100% | Hair Growth in 50% of Animals (C3H/HeN mice; [10]): 7 days | Hair Growth at LDO (% Animals) (C3H/HeN mice; [1]): 100% | Hair Growth in 50% of Animals (C3H/HeN mice; [1]): 7 days

O=C(c1cc(Oc2c(Cl)cc(-n3ncc(=O)[nH]c3=O)cc2Cl)ccc1O)N1CCc2ccccc2C1 [Cpd #2, 2-{3,5-Dichloro-4-[3-(3,4-dihydro-1H-isoquinoline-2-carbonyl)-4-hydroxy-phenoxy]-phenyl}-2H-[1,2,4]triazine-3,5-dione]
Hair Growth at LDO (% Animals) (C3H/HeN mice; [1]): 100% | Hair Growth in 50% of Animals (C3H/HeN mice; [1]): 11 days

O=C(c1ccc(F)cc1)c1cc(Oc2c(Cl)cc(-n3ncc(=O)[nH]c3=O)cc2Cl)ccc1O [Cpd #5, 2-{3,5-Dichloro-4-[3-(4-fluoro-benzoyl)-4-hydroxy-phenoxy]-phenyl}-2H-[1,2,4]triazine-3,5-dione]
Hair Growth at LDO (% Animals) (C3H/HeN mice; [1]): 100% | Hair Growth in 50% of Animals (C3H/HeN mice; [1]): 9 days

Cc1cc(NC(=O)C(=O)O)cc(C)c1Oc1ccc(O)c2c1CCC2 [Cpd #3, N-[4-(7-hydroxy-indan-4-yloxy)-3,5-dimethyl-phenyl]-oxamic acid]
Hair Growth at LDO (% Animals) (C3H/HeN mice; [1]): 20% | Hair Growth in 50% of Animals (C3H/HeN mice; [1]): >35 days
